Reference: patent US9206161B2, “Bridged bicyclic heteroaryl substituted triazoles useful as Axl inhibitors” (Rigel Pharmaceuticals, Inc., priority 2008, dated 2015)

Target: T1, Axl (Homo sapiens, UniProt P30530)
T1 construct: endogenous in cells; host or cells: HeLa cells
T1 sequence (P30530 26-894): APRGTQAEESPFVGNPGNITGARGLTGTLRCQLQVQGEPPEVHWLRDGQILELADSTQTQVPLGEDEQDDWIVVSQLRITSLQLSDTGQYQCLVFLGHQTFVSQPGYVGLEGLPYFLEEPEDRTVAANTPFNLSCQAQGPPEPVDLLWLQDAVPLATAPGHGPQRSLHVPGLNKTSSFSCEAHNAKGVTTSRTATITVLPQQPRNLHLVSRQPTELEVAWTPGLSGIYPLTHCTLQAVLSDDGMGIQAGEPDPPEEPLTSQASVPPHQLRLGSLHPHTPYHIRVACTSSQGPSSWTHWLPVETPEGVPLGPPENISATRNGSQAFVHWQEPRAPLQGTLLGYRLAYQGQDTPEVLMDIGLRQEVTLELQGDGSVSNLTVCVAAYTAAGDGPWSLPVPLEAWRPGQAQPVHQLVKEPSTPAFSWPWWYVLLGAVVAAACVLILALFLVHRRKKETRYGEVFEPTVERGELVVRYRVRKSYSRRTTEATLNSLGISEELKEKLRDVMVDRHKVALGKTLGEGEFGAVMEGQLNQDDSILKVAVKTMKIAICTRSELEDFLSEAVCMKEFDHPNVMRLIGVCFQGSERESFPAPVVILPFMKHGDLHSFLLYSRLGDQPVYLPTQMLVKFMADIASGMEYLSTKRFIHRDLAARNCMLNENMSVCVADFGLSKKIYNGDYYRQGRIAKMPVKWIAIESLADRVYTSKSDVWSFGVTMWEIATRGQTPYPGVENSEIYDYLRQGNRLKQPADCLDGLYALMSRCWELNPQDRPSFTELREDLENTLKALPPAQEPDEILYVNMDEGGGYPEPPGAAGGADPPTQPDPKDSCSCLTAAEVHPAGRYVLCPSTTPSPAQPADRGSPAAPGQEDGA
Assay: Phospho-Akt in-cell Western assay
Assay type: cell-based
Conditions: Hela cells, Axl antibody cross-linking stimulation, phospho-Akt readout
Description: Phospho-Akt in-Cell Western Assay
The compounds of the invention were tested in the following assay for their ability to inhibit Axl activity.
• Cell culture plate: 96 well assay plate (Corning 3610), white, clear bottom, tissue-culture treated. • Cells: Hela cells. • Starvation medium: For Axl stimulation: 0.5% FCS (fetal calf serum) in DMEM, plus Axl/Fc (extracellular domain of AXL fused to immunoglobulin Fc region) (R&D, 154-AL) 500 ng/mL. • For EGF (epidermal growth factor) stimulation: 0.5% FCS in DMEM (Dulbecco's modified Eagles medium). • Poly-L-Lysine 0.01% solution (the working solution): 10 μg/ml, dilute In PBS (phosphate buffered saline). • Axl antibody cross-linking: • 1st: Mouse anti-Axl (R&D, MAB154). • 2nd: Biotin-SP-conjugated AffiniPure goat anti-mouse IgG (H+L) (Jackson ImmunoResearch #115-065-003). • Fixing buffer: 4% formaldehyde in PBS. • Wash buffer: 0.1% TritonX-100 in PBS. • Quenching buffer: 3% H2O2, 0.1% Azide in wash buffer, Azide and hydrogen peroxide (H2O2) are added fresh. • Blocking buffer: 5% BSA in TBST (tris buffered saline plus 0.1% Tween 20). • Primary antibody: Rabbit anti-human Phospho-Akt antibody (Cell Signaling 9271): 1×250 diluted in blocking buffer. • Secondary antibody: HRP (horse radish peroxidase)-conjugated Goat anti-Rabbit secondary, stock solution: Jackson ImmunoResearch (Goat anti-Rabbit HRP, #111-035-144) 1:1 diluted in glycerol, store at −20° C. The working solution: 1×2000 dilution of stock in blocking buffer. • Chemiluminescent working solution (Pierce, 37030): SuperSignal ELISA (enzyme linked immunosorbant assay) Pico Chemiluminescent substrate. • Crystal Violet solution: Stock: 2.5% Crystal violet in methanol, filtered and kept at ambient temperature. The working solution: dilute the stock 1:20 with PBS immediately before use. • 10% SDS: working solution: 5% SDS (sodium dodecylsulfate), diluted in PBS Methods: Day 1:
A 96 well TC (tissue culture treated) plate was coated with 10 μg/mL poly-L-Lysine at 37° C. for 30 min, washed twice with PBS, and air-dried for 5 minutes before cells were added. Hela cells were seeded at 10,000 cells/well and the cells were starved in 100 μL starvation medium containing Axl/Fc for 24 hrs.
The cells were pre-treated with test compounds by adding 100 μL of 2× test compound to the starvation medium on the cells. The cells were incubated at 37° C. for 1 hr before stimulation.
The cells were stimulated by Axl-antibody cross-linking as follows: A 5×1st/2nd Axl antibody mixture was made (37.5 μg/mL 1st/100 μg/mL 2nd) in starvation medium and nutated at 4° C. with thorough mixing for 1-2 hours for clustering. The resulting mix was warmed to 37° C. 50 μL of 5× Axl 1st/2nd of antibody cluster was added to the cells and the cells were incubated at 37° C. for 5 min.
After 5 minutes stimulation, the plate was flicked to remove medium and the plate was tapped onto paper towels. Formaldehyde (4.0% in PBS, 100 μL) was added to fix the cells and the cells were incubated at ambient temperature for 20 min without shaking.
The cells were washed with a plate washer buffer to remove the formaldehyde solution. The plate was flicked to removed excess wash buffer and tapped onto paper towels. Quenching buffer (100 μL) was added to each well and the cells were incubated at ambient temperature for 20 minutes without shaking.
The cells were washed with a plate washer buffer to remove the quenching buffer. Blocking buffer (100 μL) was added and the cells were incubated at ambient temperature for at least an hour with gentle shaking.
The cells were washed with a plate washer buffer and diluted primary antibody (50 μL) was added to each well (blocking buffer was added to the negative control wells instead). The plates were incubated overnight at 4° C. with gentle shaking.
The wash buffer was removed, diluted secondary antibody (100 μL) was added, and the cells were incubated at ambient temperature for 1 hour with gentle shaking. […]

Work on CCCN(CCC)[C@H]1CCc2ccc(Nc3nc(N)n(-c4cc(-c5ccccc5)c5c(n4)C4CCN5CC4)n3)cc2CC1 [Compound 39, (7S)-1-(1,4-ethano-8-phenyl-1,2,3,4-tetrahydro-1,5-naphthyridin-6-yl)-N^3-(7-(dipropylamino)-6,7,8,9-tetrahydro-5H-benzo[7]annulene-2-yl)-1H-1,2,4-triazole-3,5-diamine] yielded an IC50 (Table 4, formula (III)) of under 1000 nM.
C[C@H]1CN(c2ccc(Nc3nc(N)n(-c4nnc(Cl)c5c4C4CCC5CC4)n3)cn2)CCN1CC1CC1 [Compound 20, (3S)-1-(4-chloro-5,8-ethano-5,6,7,8-tetrahydrophthalazine-1-yl)-N^3-(6-(4-(cyclopropylmethyl)-3-methylpiperazin-1-yl)pyridin-3-yl)-1H-1,2,4-triazole-3,5-diamine] was tested, and the IC50 (Table 7, formula (V)) was under 1000 nM.
Nc1nc(Nc2ccc3c(c2)CCC(N2CCCC2)CC3)nn1-c1nnc(-c2ccccc2)c2c1C1CCC2CC1 (stereo not shown) [Compound 28, 1-(4-phenyl-5,8-ethano-5,6,7,8-tetrahydrophthalazine-1-yl)-N^3-(7-(pyrrolidin-1-yl)-6,7,8,9-tetrahydro-5H-benzo[7]annulene-2-yl)-1H-1,2,4-triazole-3,5-diamine] was tested, and the IC50 (Table 8, formula (VI)) was under 1000 nM.
With C[C@H]1CN(c2ccc(Nc3nc(N)n(-c4nnc(-c5ccncc5)c5c4C4CCC5CC4)n3)cn2)CCN1CC1CC1 [Compound 24, (3S)-1-(4-(pyridin-4-yl)-5,8-ethano-5,6,7,8-tetrahydrophthalazine-1-yl)-N^3-(6-(4-(cyclopropylmethyl)-3-methylpiperazin-1-yl)pyridin-3-yl)-1H-1,2,4-triazole-3,5-diamine] the IC50 (Table 7, formula (V)) was 1000 to 10000 nM.
With Cc1cccc(-c2nnc(-n3nc(Nc4ccc(N5CCC(N6CCCC6)CC5)c(F)c4)nc3N)c3c2C2CCC3CC2)c1 [Compound 19, 1-(4-(3-methylphenyl)-5,8-ethano-5,6,7,8-tetrahydrophthalazine-1-yl)-N^3-(4-(4-(pyrrolidin-1-yl)piperidinyl)-3-fluorophenyl)-1H-1,2,4-triazole-3,5-diamine] the IC50 (Table 5, formula (IVa)) was 1000 to 10000 nM.
Nc1nc(Nc2cnc3c(c2)CC(N)CC3)nn1-c1cc(-c2ccccc2)c2c(n1)C1CCN2CC1 (stereo not shown) [Compound 1, 1-(1,4-ethano-8-phenyl-1,2,3,4-tetrahydro-1,5-naphthyridin-6-yl)-N^3-(6-amino-5,6,7,8-tetrahydroquinoline-3-yl)-1H-1,2,4-triazole-3,5-diamine] gave an IC50 (Table 1, formula (Ia)) of under 1000 nM.
For Cc1cc(F)ccc1-c1nnc(-n2nc(Nc3ccc4c(c3)CCC(N3CCCC3)CC4)nc2N)c2c1C1CCC2CC1 (stereo not shown) [Compound 33, 1-(4-(4-fluoro-2-methylphenyl)-5,8-ethano-5,6,7,8-tetrahydrophthalazine-1-yl)-N^3-(7-(pyrrolidin-1-yl)-6,7,8,9-tetrahydro-5H-benzo[7]annulene-2-yl)-1H-1,2,4-triazole-3,5-diamine], the IC50 (Table 8, formula (VI)) was under 1000 nM.
CC(C)CN(CC(C)C)[C@H]1CCc2ccc(Nc3nc(N)n(-c4cc(-c5ccccc5)c5c(n4)C4CCN5CC4)n3)cc2CC1 [Compound 41, (7S)-1-(1,4-ethano-8-phenyl-1,2,3,4-tetrahydro-1,5-naphthyridin-6-yl)-N^3-(7-(diisobutylamino)-6,7,8,9-tetrahydro-5H-benzo[7]annulene-2-yl)-1H-1,2,4-triazole-3,5-diamine] was tested, and the IC50 (Table 4, formula (III)) was under 1000 nM.
CC(C)CN[C@H]1CCc2ccc(Nc3nc(N)n(-c4cc(-c5ccccc5)c5c(n4)C4CCN5CC4)n3)cc2CC1 [Compound 40, (7S)-1-(1,4-ethano-8-phenyl-1,2,3,4-tetrahydro-1,5-naphthyridin-6-yl)-N^3-(7-(isobutylamino)-6,7,8,9-tetrahydro-5H-benzo[7]annulene-2-yl)-1H-1,2,4-triazole-3,5-diamine] showed an IC50 (Table 4, formula (III)) of under 1000 nM.
Work on Cc1cccc(-c2nnc(-n3nc(Nc4ccc5c(c4)CCC(N4CCCC4)CC5)nc3N)c3c2C2CCC3CC2)c1 (stereo not shown) [Compound 30, 1-(4-(3-methylphenyl)-5,8-ethano-5,6,7,8-tetrahydrophthalazine-1-yl)-N^3-(7-(pyrrolidin-1-yl)-6,7,8,9-tetrahydro-5H-benzo[7]annulene-2-yl)-1H-1,2,4-triazole-3,5-diamine] yielded an IC50 (Table 8, formula (VI)) of under 1000 nM.
Work on CN(C)CC(=O)NC1CCc2ncc(Nc3nc(N)n(-c4cc(-c5ccccc5)c5c(n4)C4CCN5CC4)n3)cc2C1 (stereo not shown) [Compound 3, 1-(1,4-ethano-8-phenyl-1,2,3,4-tetrahydro-1,5-naphthyridin-6-yl)-N^3-(6-[(((dimethyl)amino)methyl)carbonylamino]-5,6,7,8-tetrahydroquinoline-3-yl)-1H-1,2,4-triazole-3,5-diamine] yielded an IC50 (Table 1, formula (Ia)) of under 1000 nM.
In the case of Nc1nc(Nc2ccc3c(c2)CC[C@@H](N)CC3)nn1-c1cc(-c2ccccc2)c2c(n1)C1CCN2CC1 [Compound 26, (7S)-1-(1,4-ethano-8-phenyl-1,2,3,4-tetrahydro-1,5-naphthyridin-6-yl)-N^3-(7-amino-6,7,8,9-tetrahydro-5H-benzo[7]annulene-2-yl)-1H-1,2,4-triazole-3,5-diamine], the IC50 (Table 4, formula (III)) is reported as under 1000 nM.
Nc1nc(Nc2cnc3c(c2)CNCC3)nn1-c1cc(-c2ccccc2)c2c(n1)C1CCN2CC1 [Compound 2, 1-(1,4-ethano-8-phenyl-1,2,3,4-tetrahydro-1,5-naphthyridin-6-yl)-N^3-(5,6,7,8-tetrahydro-1,6-naphthyridine-3-yl)-1H-1,2,4-triazole-3,5-diamine] was tested, and the IC50 (Table 2, formula (Ib)) was under 1000 nM.
